Reference: patent US20250090562A1, “METHODS, COMPOSITIONS AND USES RELATED TO THE TREATMENT AND PREVENTION OF LEIGH’S SYNDROME” (Stealth BioTherapeutics Inc., priority 2023, published 2025)
pEC50: −log10 of the molar value.

Columns and labels:
15-lipoxygenase (15-LO) = assay: 15(S)-HETE ELISA following RSL3 treatment, healthy fibroblasts; type: cell-based, human; settings: 700 nM RSL3, 1 μM compound, 24 h
Protocol: Samples for the 15(S)-HETE ELISA were generated by the RSL3 cytoprotection assay described above. Healthy or Leigh fibroblasts were resuspended in assay medium, seeded at 200,000 cells per well in a clear, tissue culture-treated, 24-well plate. Cells were incubated at 37° C. for 24 hours. Supernatant was aspirated from each well following the incubation.
Fibroblasts from both a healthy individual and a patient diagnosed with Leigh syndrome were examined (but not all compounds were examined in each cell type). Activation of ferroptosis has been implicated as a driver of epilepsy, which is commonly associated with Leigh syndrome. […] Kahn-Kirby et al. PLOS One. […] As a key regulator of ferroptosis, 15-LO serves as a rational therapeutic target in Leigh syndrome.

[1] = test system: rotenone-inhibited Complex I; assay: Complex I-bypass assay ((CI)-bypass assay), high-resolution respirometry O2 consumption; type: cell-based, human; settings: Leigh (GM03672) fibroblasts, 0.5 μM rotenone, oxygen consumption rate; read-out: EC50 value, Complex I by-pass activity
Protocol: All high-resolution respirometry experiments were conducted using the Oroboros O2k-Fluorespirometer (Oroboros, Innsbruck, Austria). The Oroboros O2k-Fluorespirometer was calibrated daily using the air calibration protocol on DatLab 7.4 (Oroboros, Innsbruck, Austria). Prior to each experiment requiring the fluorescence module, the AmpR calibration protocol from DatLab 7.4 was used to calibrate the fluorescence signal. Initial data analysis, including setting of marks, was performed using DatLab 7.4.
Complex I-bypass activity was assessed using HRR to measure O2 consumption. Briefly, Leigh (GM03672) fibroblasts were harvested with trypsin, pelleted at 300×g centrifugation, and resuspended in prewarmed, complete MEM. Cells were added to each chamber via buffer replacement at a concentration of 1-2 million per mL. The chambers were closed to initiate measurement of O2 consumption. The slope negative signal, which is a derivative of O2 consumption, was allowed to stabilize over the course of several minutes. Using a Hamilton syringe to allow for continuous measurement of O2 consumption, glutamate (10 mM final concentration) and malate (0.1 mM final concentration) were added to the closed chamber through the central capillary of the stopper. The slope negative signal was stabilized for several minutes, and rotenone was added at a final concentration of 0.5 μM. One of Compounds 1 to 4 or Vatiquinone was added at increasing concentrations, allowing for several minutes of stabilization of the slope negative signal between titrations. Marks were set at signal plateaus in between titrations. Values were exported and analyzed using GraphPad Prism 9. […] Responsiveness of cells was confirmed with idebenone.
Statistical analysis was performed using GraphPad Prism 9. Complex I-bypass data were fit using nonlinear sigmoidal 4P fit. RET Assay data were analyzed by 2-way ANOVA using a p-value of 0.05.
The Complex 1-bypass assay ((CI)-bypass Assay) evaluates the capacity of compounds to donate electrons into the electron transport chain (ETC) when Complex I is impaired or otherwise deficient. Normally, electrons feed into the ETC through Complex I. In instances where Complex I is impaired, electrons must enter the ETC downstream of Complex I for oxidative phosphorylation (OXPHOS) to occur. Complex I is composed of 46 subunits, encoded by mitochondrial and nuclear genes. Due to its large size, Complex I mutations are a common cause of ETC dysfunction in mitochondrial diseases. Indeed, mutations in the genes that encode subunits for Complex I are important causes of Leigh and Leigh-like syndrome.
Using this assay, the ability of Compounds 1 to 4 and Vatiquinone to bypass rotenone-inhibited Complex I was determined. Rotenone is a widely used Complex I inhibitor and blocks the transfer of electrons from the iron-sulfur complexes on Complex I to ubiquinone. Thus, when rotenone is introduced to cells underdoing routine respiration, a decrease in oxygen consumption is observed, which is indicative of disrupted OXPHOS. The ability of Compounds 1 to 4 and Vatiquinone to “bypass” Complex I and restore OXPHOS is measured by an increase in oxygen consumption rate following addition of the compound to the chamber.
In executing this assay, in each instance, fibroblasts are added to each chamber of the Oroboros Oxygraph-2K (the “O2k”). The O2k generates two traces: 1) total oxygen consumption over time, 2) the rate of oxygen consumption over time (slope negative). Baseline respiration is established for several minutes by allowing the slope negative to stabilize. Rotenone is introduced to each chamber at a final concentration of 0.5 μM. The addition of rotenone is expected to cause a marked reduction of OXPHOS as measured by a decreased rate of oxygen consumption. Then the test article (i.e., in this case one of Compounds 1 to 4 or Vatiquinone) is added to the chamber. […]

[2] = Pharmacokinetics of Compound 3 and Compound 4, five daily subcutaneous doses, mice (plasma, heart, brain); type: in vivo, C57Bl/6 mice; settings: mouse; for tolerability: SC once per day for 5 days, up to 60 mg/kg
Protocol: • Animals: Male/C57Bl/6 mice/-18-25 grams were received from an approved vendor. • Fasting was not required for this study. • Body weights were recorded prior to dose administration. The volume of each dose delivered (mL/kg) was based on each individual animal's body weight. • This was a multiple dose terminal study dosed once per day over 5 days. Mice were taken down following their 5th and final dose. • Doses were administered in accordance with test facility standard operating procedures. […] Any abnormalities were recorded. • Pre-formulated Compound 3 and Compound 4 were provided by Study sponsor ready to be dosed for each day in accordance with the Study Design set forth in Table 1, below.
• Terminal blood samples were collected via cardiac puncture following inhalation of anesthesia in accordance with test facility standard operating procedures. • Blood samples were collected into tubes with appropriate anticoagulant. The tubes were stored on wet ice until processed to plasma by centrifugation (3500 rpm at 5° C. for 10 minutes) within 20 minutes of collection. Sample aliquots of 100 μL were transferred into individual uniquely labeled matrix tubes and stored at nominal −80° C. until transferred to analytical chemistry for analysis by LC/MS/MS. • Immediately following each terminal blood collection for all groups, animals were sacrificed and perfused with cold PBS. The following tissues were collected: heart and brain in accordance with Table 2. • Plasma and tissue samples were processed for analysis by LC/MS/MS to determine the amounts/concentrations reported in the FIGS. 18-21.

[3] = SC, up to 2 hours post dose after 5 days

SMILES | inhibition of 15-lipoxygenase (15(S)-HETE in supernatant) (15-lipoxygenase (15-LO)) | relative 15-LO inhibition (comparison between test articles) (15-lipoxygenase (15-LO)) | pEC50 [1] | exposure (Cmax and AUC) heart compared with brain ([2]; SC) | heart exposure based on AUC, comparison between compounds ([2]; SC) | uptake into plasma after subcutaneous injection ([2]; SC) | tolerability [2] | concentration in brain tissue [2, 3] | concentration in heart tissue [2, 3] | Tmax, Compound 4 compared with Compound 3 ([2]; in vivo, sc) | brain exposure based on AUC, comparison between compounds ([2]; in vivo, sc) | exposure (Cmax and AUC) heart compared with brain ([2]; in vivo, sc) | half-life, Compound 4 compared with Compound 3 ([2]; in vivo, sc) | uptake into plasma after subcutaneous injection ([2]; in vivo, sc)
CC1=C(C)C(=O)C(CC[C@@](C)(O)CC/C=C(\C)CCC=C(F)F)=C(C)C1=O [Compound 2] | inhibited 15-lipoxygenase | roughly equivalent protective effect | ~5.39 |  |  |  |  |  |  |  |  |  |  | 
CC1=C(C)C(=O)C(CC[C@@](C)(O)COCCC[Si](C)(C)C)=C(C)C1=O [Compound 3] | inhibited 15-lipoxygenase | superior to Compounds 2, 4 and Vatiquinone | ~5.47 | higher in heart than in brain | slightly higher that Compound 4 | migrate into the blood stream | well tolerated | up to microgram quantities of drug per gram of brain tissue | up to microgram quantities of drug per gram of heart tissue |  |  |  |  | 
CC1=C(C)C(=O)C(CC[C@](C)(O)CCCCCCCCC(F)(F)F)=C(C)C1=O [Compound 4] | inhibited 15-lipoxygenase | roughly equivalent protective effect | ~5.06 |  |  |  | well tolerated |  |  | typically later | somewhat higher than Compound 3 | no difference in the two tissue exposures | tended to be longer | migrate into the blood stream
